Measurements as given in US6596723B1, “Fungal efflux pump inhibitors” (Essential Therapeutics, Inc., priority 2001, dated 2003).
Where two headings read alike, the source gives them in different places.

Legend:
A. fumigatus = experiment: potentiation of Posaconazole vs. A. fumigatus; assay type: cell-based, Aspergillus fumigatus; conditions: 15 strains
[1] = test system: clinical isolates of C. parapsilosis; experiment: potentiation of fluconazole vs. clinical isolates of C. parapsilosis; assay type: cell-based; conditions: Lodderomyces parapsilosis
[2] = test system: clinical isolates of C. krusei; experiment: potentiation of fluconazole vs. clinical isolates of C. krusei; assay type: cell-based; conditions: Pichia kudriavzevii
[3] = test system: clinical isolates of C. tropicalis; experiment: potentiation of fluconazole vs. clinical isolates of C. tropicalis; assay type: cell-based; conditions: for MIC50 / MIC90: Candida tropicalis
[4] = fluconazole MIC with FEPI at 16-32 μg/ml, read-out: MIC50 Flu + FEPI
[5] = fluconazole MIC with FEPI at 16-32 μg/ml, read-out: MIC90 Flu + FEPI
[6] = fluconazole MIC with FEPI at 16-32 μg/ml, C. krusei clinical isolates, read-out: MIC50 Flu + FEPI
[7] = fluconazole MIC with FEPI at 16-32 μg/ml, C. krusei clinical isolates, read-out: MIC90 Flu + FEPI
[8] = fluconazole MIC with FEPI at 16-32 μg/ml, C. tropicalis clinical isolates, read-out: MIC90 Flu + FEPI

Compound | MPC8 (A. fumigatus; concentration of efflux pump inhibitor to reduce MIC of Posaconazole 8-fold) [µg/mL] | MIC (A. fumigatus; Aspergillus fumigatus, footnote: minimum inhibitor concentration of Posaconazole alone to achieve 80% inhibition) [µg/mL] | MIC50 [1, 4] [µg/mL] | MIC90 [1, 5] [µg/mL] | MIC50 [2, 6] [µg/mL] | MIC90 [2, 7] [µg/mL] | MIC50 ([3]; fluconazole MIC with FEPI at 16-32 μg/ml, […], read-out: MIC50 Flu + FEPI) [µg/mL] | MIC90 [3, 8] [µg/mL] | MIC50 ([3]; fluconazole MIC with FEPI at 16-32 μg/ml, C. tropicalis clinical isolates, read-out: MIC50 Flu + FEPI) [µg/mL] | MIC50 ([1]; fluconazole alone, read-out: MIC50 Flu only) [µg/mL] | MIC90 ([1]; fluconazole alone, read-out: MIC90 Flu only) [µg/mL] | MIC90 ([2]; read-out: MIC90 Flu only) [µg/mL] | MIC50 ([2]; fluconazole alone, C. krusei clinical isolates, read-out: MIC50 Flu only) [µg/mL] | MIC50 ([3]; read-out: MIC50 Flu only) [µg/mL] | MIC90 ([3]; read-out: MIC90 Flu only) [µg/mL] | MIC50 Flu only ([3]; listed as Flu) [µg/mL]
COc1ccc(N(C(=O)Nc2cccc(Cl)c2)C(C)c2nc3ccccc3c(=O)n2N2CCN(C)CC2)c(OC)c1 (stereo not drawn) [Compound 1, 3-(3-Chloro-phenyl)-1-(2,4-dimethoxy-phenyl)-1-{1-[3-(4-methyl-piperazin-1-yl)-4-oxo-3,4-dihydro-quinazolin-2-yl]-ethyl}-urea] | 8 to 32 | > 32 | < 0.03 | 0.25 | 32 | > 32 | 0.125 | 2 | – | – | – | – | – | – | – | –
COc1ccc(N(C(=O)Nc2cccc(Cl)c2)C(C)c2nc3ccccc3c(=O)n2N2CCN(CCO)CC2)c(OC)c1 (stereo not drawn) [Compound 3, 3-(3-Chloro-phenyl)-1-(2,4-dimethoxy-phenyl)-1-(1-{3-[4-(2-hydroxy-ethyl)-piperazin-1-yl]-4-oxo-3,4-dihydro-quinazolin-2-yl}-ethyl)-urea] | – | – | < 0.03 | 0.5 | > 32 | > 32 | – | 8 | 0.25 | – | – | – | – | – | – | –
OC(Cn1cncn1)(Cn1cncn1)c1ccc(F)cc1F [fluconazole, reference compound] | – | – | – | – | – | – | – | – | – | 1 | 4 | > 128 | 64 | > 128 | > 128 | 128
